# Data: patent publication US20080009418A1, “Selective Inhibitors” (Alchemia LTD., priority 2004, published 2008)
# Key:
# [1] = molecular target: T1, Human neurokinin (NK1) (Homo sapiens, UniProt P25103); assay: Radioligand binding, human neurokinin NK1 membranes, filtration, [125I]-Substance P; conditions: compound at 10 μM, [125I]-Substance P
# T1 construct: purchased Perkin Elmer Biosignal
# Summary of the method: (§1)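 Percent inhibition of radioligand binding measured on recombinant human membranes: NK1 with [125I]-Substance P, KOP with [3H]-Diprenorphine. Incubation 1 h at room temperature, then harvest onto 0.3% PEI-soaked filters, cold Tris-HCl pH 7.4 washes and scintillation counting; non-specific binding from reference ligand wells.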
# [2] = molecular target: T2, Human neuropeptide Y (NPY-Y1) (Homo sapiens, UniProt P25929); assay: Radioligand binding, human neuropeptide Y NPY-Y1 membranes, FlashPlate, [125I]-PYY; conditions: compound at 10 μM, [125I]-PYY
# T2 construct: purchased Perkin Elmer Biosignal
# T2 sequence (P25929 1-384): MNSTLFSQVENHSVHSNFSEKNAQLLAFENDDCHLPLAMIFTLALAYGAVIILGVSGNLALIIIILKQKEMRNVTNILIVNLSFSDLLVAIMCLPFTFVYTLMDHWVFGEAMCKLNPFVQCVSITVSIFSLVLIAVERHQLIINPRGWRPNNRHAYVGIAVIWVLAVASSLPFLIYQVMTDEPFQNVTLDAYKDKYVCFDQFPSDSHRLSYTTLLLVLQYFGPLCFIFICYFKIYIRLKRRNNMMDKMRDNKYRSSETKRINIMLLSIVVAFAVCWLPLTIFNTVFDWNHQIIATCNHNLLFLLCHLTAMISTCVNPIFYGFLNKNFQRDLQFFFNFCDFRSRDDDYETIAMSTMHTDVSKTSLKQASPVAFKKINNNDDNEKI
# Summary of the method: (§2)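 Cloned human receptor membranes were coated onto FlashPlate wells and incubated with radioligand and compound (added from a 0.5 mM DMSO daughter plate) for 1 hour at room temperature in the dark. Scintillation counting gave percent inhibition, with DMSO defining total and reference ligand defining non-specific binding.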
# [3] = molecular target: T3, Human Melanocortin (MC3) (Homo sapiens, UniProt P41968); assay: Radioligand binding, human melanocortin MC3 membranes, FlashPlate, [125I]-NDP-αMSH; conditions: compound at 10 μM, [125I]-NDP-αMSH
# T3 construct: purchased Perkin Elmer Biosignal
# T3 sequence (P41968 whole entry): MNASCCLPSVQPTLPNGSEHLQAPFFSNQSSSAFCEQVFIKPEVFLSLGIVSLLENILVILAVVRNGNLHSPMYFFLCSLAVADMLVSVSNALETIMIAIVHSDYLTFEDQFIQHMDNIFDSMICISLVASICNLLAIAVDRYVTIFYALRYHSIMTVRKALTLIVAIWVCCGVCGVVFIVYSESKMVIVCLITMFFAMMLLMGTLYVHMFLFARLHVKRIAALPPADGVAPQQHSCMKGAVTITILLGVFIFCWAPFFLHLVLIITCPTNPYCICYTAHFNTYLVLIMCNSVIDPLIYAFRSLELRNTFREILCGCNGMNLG
# Summary of the method: as §2
# [4] = molecular target: T4, Mouse urotensin (mUR2) (Mus musculus, UniProt Q8VIH9); assay: Radioligand binding, mouse urotensin mUR2 membranes, FlashPlate, [125I]-Urotensin II; conditions: compound at 10 μM, [125I]-Urotensin II
# T4 construct: purchased Perkin Elmer Biosignal
# T4 sequence (Q8VIH9 1-385): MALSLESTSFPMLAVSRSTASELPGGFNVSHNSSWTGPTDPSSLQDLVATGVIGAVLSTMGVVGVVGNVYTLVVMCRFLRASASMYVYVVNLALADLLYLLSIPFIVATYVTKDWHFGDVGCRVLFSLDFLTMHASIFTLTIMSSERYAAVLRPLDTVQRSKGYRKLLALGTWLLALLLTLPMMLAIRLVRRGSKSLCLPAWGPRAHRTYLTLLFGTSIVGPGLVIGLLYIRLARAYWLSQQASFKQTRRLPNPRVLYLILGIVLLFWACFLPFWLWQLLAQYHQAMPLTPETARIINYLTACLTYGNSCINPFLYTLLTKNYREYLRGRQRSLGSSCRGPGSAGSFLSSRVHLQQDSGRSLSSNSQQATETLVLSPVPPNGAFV
# Summary of the method: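 Cloned mouse urotensin (mUR2) receptor membranes from Perkin Elmer Biosignal were immobilized in FlashPlate microplates using a proprietary coating. Each well got 19.5 μl buffer, then 0.5 μl of DMSO, reference ligand, or compound. Adding 5 μl of [125I]-Urotensin II, diluted to 5× final concentration in binding buffer, started binding. Plates were sealed with TopSeal-A and incubated 1 hour at room temperature in the dark. Wells were counted for 30 seconds each on a TopCount after a 60-second delay, and percentage inhibition was calculated.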
# [5] = molecular target: T5, Human Melanocortin (MC4) (Homo sapiens, UniProt P32245); assay: Radioligand binding, human melanocortin MC4 membranes, FlashPlate, [125I]-NDP-αMSH; conditions: compound at 10 μM, [125I]-NDP-αMSH
# T5 construct: purchased Perkin Elmer Biosignal
# T5 sequence (P32245 whole entry): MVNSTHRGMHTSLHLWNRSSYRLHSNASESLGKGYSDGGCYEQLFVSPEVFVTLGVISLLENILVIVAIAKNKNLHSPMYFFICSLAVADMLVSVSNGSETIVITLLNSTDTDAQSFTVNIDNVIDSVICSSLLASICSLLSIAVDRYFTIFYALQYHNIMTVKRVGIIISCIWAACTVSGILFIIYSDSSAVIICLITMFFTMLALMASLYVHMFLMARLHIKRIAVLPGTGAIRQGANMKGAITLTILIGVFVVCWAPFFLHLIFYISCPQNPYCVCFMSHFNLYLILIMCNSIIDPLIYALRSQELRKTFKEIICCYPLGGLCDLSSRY
# Summary of the method: as §2
# [6] = molecular target: T6, Human opioid (ORL1) (Homo sapiens, UniProt P41146); assay: Radioligand binding, human opioid ORL1 membranes, FlashPlate, [125I]-Nociceptin; conditions: compound at 10 μM, [125I]-Nociceptin
# T6 construct: purchased Perkin Elmer Biosignal
# T6 sequence (P41146 whole entry): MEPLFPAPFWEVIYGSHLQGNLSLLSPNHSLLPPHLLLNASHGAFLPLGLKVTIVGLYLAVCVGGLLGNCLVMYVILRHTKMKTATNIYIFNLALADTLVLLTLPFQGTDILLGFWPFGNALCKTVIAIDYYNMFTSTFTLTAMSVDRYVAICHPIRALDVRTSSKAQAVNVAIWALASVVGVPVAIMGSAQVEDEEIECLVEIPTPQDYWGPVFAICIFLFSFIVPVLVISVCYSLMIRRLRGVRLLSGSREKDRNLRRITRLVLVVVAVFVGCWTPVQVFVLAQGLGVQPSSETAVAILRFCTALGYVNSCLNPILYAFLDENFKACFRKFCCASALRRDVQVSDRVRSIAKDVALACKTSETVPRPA
# Summary of the method: as §2
# [7] = molecular target: T7, Human μ-opioid (MOP) (Homo sapiens, UniProt P35372); assay: Radioligand binding, human μ-opioid (MOP) membranes, FlashPlate, [3H]-Naloxone; conditions: compound at 10 μM, [3H]-Naloxone
# T7 construct: purchased Perkin Elmer Biosignal
# T7 sequence (P35372 whole entry): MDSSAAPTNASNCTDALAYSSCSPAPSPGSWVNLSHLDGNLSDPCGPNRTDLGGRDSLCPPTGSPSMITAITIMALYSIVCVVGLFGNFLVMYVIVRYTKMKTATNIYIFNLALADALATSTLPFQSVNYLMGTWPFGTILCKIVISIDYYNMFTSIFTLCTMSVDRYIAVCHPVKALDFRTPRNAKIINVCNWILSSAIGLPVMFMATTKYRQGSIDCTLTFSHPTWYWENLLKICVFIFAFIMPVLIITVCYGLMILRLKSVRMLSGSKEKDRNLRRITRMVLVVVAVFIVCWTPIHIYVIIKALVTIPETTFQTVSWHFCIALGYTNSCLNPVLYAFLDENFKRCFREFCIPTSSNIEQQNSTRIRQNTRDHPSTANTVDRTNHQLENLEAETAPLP
# Summary of the method: as §2
# [8] = molecular target: T8, Human δ-opioid (DOP) (Homo sapiens, UniProt P41143); assay: Radioligand binding, human δ-opioid (DOP) membranes, FlashPlate, [3H]-Bremazocine; conditions: compound at 10 μM, [3H]-Bremazocine
# T8 construct: purchased Perkin Elmer Biosignal
# T8 sequence (P41143 whole entry): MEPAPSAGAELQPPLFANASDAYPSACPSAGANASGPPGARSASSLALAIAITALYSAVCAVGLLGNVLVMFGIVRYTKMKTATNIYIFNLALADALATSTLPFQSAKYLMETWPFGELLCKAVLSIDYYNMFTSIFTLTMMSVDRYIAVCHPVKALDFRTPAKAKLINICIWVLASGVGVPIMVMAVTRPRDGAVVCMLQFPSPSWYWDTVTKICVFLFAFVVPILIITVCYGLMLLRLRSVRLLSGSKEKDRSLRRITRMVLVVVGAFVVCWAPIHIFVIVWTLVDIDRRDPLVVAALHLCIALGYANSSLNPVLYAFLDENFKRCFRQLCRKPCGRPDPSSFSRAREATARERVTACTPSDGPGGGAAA
# Summary of the method: as §2
# [9] = molecular target: T9, Human melanocortin (MC5) (Homo sapiens, UniProt P33032); assay: Radioligand binding, human melanocortin MC5 membranes, FlashPlate, [125I]-NDP-αMSH; conditions: compound at 10 μM, [125I]-NDP-αMSH
# T9 construct: purchased Perkin Elmer Biosignal
# T9 sequence (P33032 whole entry): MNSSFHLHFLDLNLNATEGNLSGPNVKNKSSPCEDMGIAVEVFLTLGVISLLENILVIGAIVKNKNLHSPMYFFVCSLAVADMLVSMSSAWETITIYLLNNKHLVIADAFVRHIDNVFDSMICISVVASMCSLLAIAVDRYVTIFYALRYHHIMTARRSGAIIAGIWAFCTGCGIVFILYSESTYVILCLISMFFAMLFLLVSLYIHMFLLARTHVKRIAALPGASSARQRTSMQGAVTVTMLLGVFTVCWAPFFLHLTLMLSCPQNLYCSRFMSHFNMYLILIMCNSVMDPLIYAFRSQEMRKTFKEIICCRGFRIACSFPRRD
# Summary of the method: as §2
# [10] = molecular target: T10, Human melanin-concentrating hormone (MCH1) (Homo sapiens, UniProt Q99705); assay: Radioligand binding, human melanin-concentrating hormone MCH1 membranes, FlashPlate, [125I]-S36057; conditions: compound at 10 μM; for A6: inhibition of radioligand binding, human melanin-concentrating hormone (MCH1): [125I]-S36057
# T10 construct: purchased Perkin Elmer Biosignal
# T10 sequence (Q99705 whole entry): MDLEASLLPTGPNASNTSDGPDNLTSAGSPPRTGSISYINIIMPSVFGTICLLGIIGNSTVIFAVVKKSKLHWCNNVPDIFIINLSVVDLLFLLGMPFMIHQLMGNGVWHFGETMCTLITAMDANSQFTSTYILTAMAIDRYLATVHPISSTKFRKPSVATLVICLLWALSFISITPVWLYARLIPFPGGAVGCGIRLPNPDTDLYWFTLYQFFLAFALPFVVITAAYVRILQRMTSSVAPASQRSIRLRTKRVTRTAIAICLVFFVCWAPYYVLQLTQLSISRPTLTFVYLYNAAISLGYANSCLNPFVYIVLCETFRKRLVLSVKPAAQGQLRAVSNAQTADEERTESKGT
# Summary of the method: as §2
# [11] = molecular target: T11, Human κ-Opioid (KOP) (Homo sapiens, UniProt P41145); assay: Radioligand binding, human κ-opioid (KOP) membranes, filtration, [3H]-Diprenorphine; conditions: compound at 10 μM, [3H]-Diprenorphine
# T11 construct: purchased Perkin Elmer Biosignal
# T11 sequence (P41145 whole entry): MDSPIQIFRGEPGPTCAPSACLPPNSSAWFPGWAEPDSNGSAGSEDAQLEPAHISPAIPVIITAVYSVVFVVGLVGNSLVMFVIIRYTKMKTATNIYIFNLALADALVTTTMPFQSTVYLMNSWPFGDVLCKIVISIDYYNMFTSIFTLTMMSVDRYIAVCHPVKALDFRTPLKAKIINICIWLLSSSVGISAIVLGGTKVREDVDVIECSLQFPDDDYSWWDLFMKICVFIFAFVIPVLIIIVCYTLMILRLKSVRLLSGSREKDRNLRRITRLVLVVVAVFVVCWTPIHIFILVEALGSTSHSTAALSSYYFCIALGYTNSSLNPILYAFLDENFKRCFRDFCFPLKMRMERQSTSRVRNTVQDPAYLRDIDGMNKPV
# Summary of the method: as §1
# T1 sequence (P25103 whole entry): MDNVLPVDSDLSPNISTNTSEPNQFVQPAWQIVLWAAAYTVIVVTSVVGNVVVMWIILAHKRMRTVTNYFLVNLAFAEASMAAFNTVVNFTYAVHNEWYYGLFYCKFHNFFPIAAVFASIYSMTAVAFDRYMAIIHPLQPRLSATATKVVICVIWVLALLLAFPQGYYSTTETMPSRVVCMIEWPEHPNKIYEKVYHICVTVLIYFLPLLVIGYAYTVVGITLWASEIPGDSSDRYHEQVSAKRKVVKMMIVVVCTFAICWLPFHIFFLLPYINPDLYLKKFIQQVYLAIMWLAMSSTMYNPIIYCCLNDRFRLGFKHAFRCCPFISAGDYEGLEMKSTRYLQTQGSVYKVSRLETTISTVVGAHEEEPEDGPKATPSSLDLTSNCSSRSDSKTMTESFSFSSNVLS
smiles,measurement,setting,value
"NCCCC(=O)NC1C(OCc2ccc3ccccc3c2)OC(COCc2ccccc2)C(O)C1OCc1ccccc1 (single isomer, unassigned) [compound 467]",A8: inhibition of radioligand binding,[1]; human NK1 membranes,+ (“+” indicates greater than 50% inhibition at 10 μM)
same,A9: inhibition of radioligand binding,[2]; human NPY-Y1 membranes,− (“−” indicates less than 50% inhibition at 10 μM)
same,A3: inhibition of radioligand binding,[3]; human MC3 membranes,− (“−” indicates less than 50% inhibition at 10 μM)
same,A11: inhibition of radioligand binding,[4]; mouse mUR2 membranes,− (“−” indicates less than 50% inhibition at 10 μM)
same,A4: inhibition of radioligand binding,"[5]; human MC4 membranes, 10 µM",− (“−” indicates less than 50% inhibition at 10 μM)
same,A10: inhibition of radioligand binding,"[6]; human ORL1 membranes, 10 µM",− (“−” indicates less than 50% inhibition at 10 μM)
same,A7: inhibition of radioligand binding,"[7]; human MOP membranes, 10 µM",− (“−” indicates less than 50% inhibition at 10 μM)
same,A1: inhibition of radioligand binding,[8]; human DOP membranes,− (“−” indicates less than 50% inhibition at 10 μM)
same,A5: inhibition of radioligand binding,[9]; human MC5 membranes,− (“−” indicates less than 50% inhibition at 10 μM)
same,A6: inhibition of radioligand binding,"[10]; [125I]-S36057, human MCH1 membranes",− (“−” indicates less than 50% inhibition at 10 μM)
same,A2: inhibition of radioligand binding,[11]; human KOP membranes,− (“−” indicates less than 50% inhibition at 10 μM)
CSC1OC(COCc2ccc(Cl)cc2)C(O)C(OCc2ccccc2)C1NC(=O)CNC(=N)N (stereo not shown) [compound 253],A8: inhibition of radioligand binding,[1]; filtration,+ (“+” indicates greater than 50% inhibition at 10 μM)
same,A9: inhibition of radioligand binding,[2]; FlashPlate,− (“−” indicates less than 50% inhibition at 10 μM)
same,A3: inhibition of radioligand binding,[3]; FlashPlate,− (“−” indicates less than 50% inhibition at 10 μM)
same,A11: inhibition of radioligand binding,[4]; FlashPlate,− (“−” indicates less than 50% inhibition at 10 μM)
same,A4: inhibition of radioligand binding,[5]; FlashPlate,− (“−” indicates less than 50% inhibition at 10 μM)
same,A10: inhibition of radioligand binding,[6]; FlashPlate,− (“−” indicates less than 50% inhibition at 10 μM)
same,A7: inhibition of radioligand binding,[7]; FlashPlate,− (“−” indicates less than 50% inhibition at 10 μM)
same,A1: inhibition of radioligand binding,[8]; FlashPlate,− (“−” indicates less than 50% inhibition at 10 μM)
same,A5: inhibition of radioligand binding,[9]; FlashPlate,+ (“+” indicates greater than 50% inhibition at 10 μM)
same,A6: inhibition of radioligand binding,"[10]; [125I]-S36057, FlashPlate",− (“−” indicates less than 50% inhibition at 10 μM)
same,A2: inhibition of radioligand binding,[11]; filtration,− (“−” indicates less than 50% inhibition at 10 μM)
"NCCCC(=O)NC1C(OCc2ccc(Cl)cc2)OC(COCc2ccc3ccccc3c2)C(O)C1OCc1ccc(Cl)cc1 (single isomer, unassigned) [compound 489]","A8: inhibition of radioligand binding, human neurokinin (NK1)",[1],+ (“+” indicates greater than 50% inhibition at 10 μM)
same,"A9: inhibition of radioligand binding, human neuropeptide Y (NPY-Y1)",[2],− (“−” indicates less than 50% inhibition at 10 μM)
same,"A3: inhibition of radioligand binding, human melanocortin (MC3)",[3],+ (“+” indicates greater than 50% inhibition at 10 μM)
same,"A11: inhibition of radioligand binding, mouse urotensin (mUR2)",[4],− (“−” indicates less than 50% inhibition at 10 μM)
same,"A4: inhibition of radioligand binding, human melanocortin (MC4)",[5],+ (“+” indicates greater than 50% inhibition at 10 μM)
same,"A10: inhibition of radioligand binding, human opioid (ORL1)",[6],+ (“+” indicates greater than 50% inhibition at 10 μM)
same,"A7: inhibition of radioligand binding, human μ-opioid (MOP)",[7],+ (“+” indicates greater than 50% inhibition at 10 μM)
same,"A1: inhibition of radioligand binding, human δ-opioid (DOP)",[8],− (“−” indicates less than 50% inhibition at 10 μM)
same,"A5: inhibition of radioligand binding, human melanocortin (MC5)",[9],+ (“+” indicates greater than 50% inhibition at 10 μM)
same,"A6: inhibition of radioligand binding, human melanin-concentrating hormone (MCH1)",[10]; 10 µM,− (“−” indicates less than 50% inhibition at 10 μM)
same,"A2: inhibition of radioligand binding, human κ-opioid (KOP)",[11],− (“−” indicates less than 50% inhibition at 10 μM)
N=C(N)NCCC(=O)N[C@H]1C(OCc2ccc(Cl)cc2)O[C@H](COCc2ccc3ccccc3c2)[C@@H](O)[C@@H]1OCc1ccc(Cl)cc1 (stereo partly shown) [compound 522],"A8: inhibition of radioligand binding, human neurokinin (NK1)",[1],+ (“+” indicates greater than 50% inhibition at 10 μM)
same,"A9: inhibition of radioligand binding, human neuropeptide Y (NPY-Y1)",[2]; 10 µM,+ (“+” indicates greater than 50% inhibition at 10 μM)
same,"A3: inhibition of radioligand binding, human melanocortin (MC3)",[3],+ (“+” indicates greater than 50% inhibition at 10 μM)
same,"A11: inhibition of radioligand binding, mouse urotensin (mUR2)",[4],− (“−” indicates less than 50% inhibition at 10 μM)
same,"A4: inhibition of radioligand binding, human melanocortin (MC4)",[5],+ (“+” indicates greater than 50% inhibition at 10 μM)
same,"A10: inhibition of radioligand binding, human opioid (ORL1)",[6],+ (“+” indicates greater than 50% inhibition at 10 μM)
same,"A7: inhibition of radioligand binding, human μ-opioid (MOP)",[7]; 10 µM,− (“−” indicates less than 50% inhibition at 10 μM)
same,"A1: inhibition of radioligand binding, human δ-opioid (DOP)",[8],− (“−” indicates less than 50% inhibition at 10 μM)
same,"A5: inhibition of radioligand binding, human melanocortin (MC5)",[9],+ (“+” indicates greater than 50% inhibition at 10 μM)
same,"A6: inhibition of radioligand binding, human melanin-concentrating hormone (MCH1)",[10],+ (“+” indicates greater than 50% inhibition at 10 μM)
same,"A2: inhibition of radioligand binding, human κ-opioid (KOP)",[11],+ (“+” indicates greater than 50% inhibition at 10 μM)
NCC(=O)NC1O[C@H](CO)[C@@H](O)[C@H](OCc2ccccc2)[C@H]1NC(=O)c1ccccc1 (stereo partly shown) [compound 360],"A8: inhibition of radioligand binding, human neurokinin (NK1)",[1],− (“−” indicates less than 50% inhibition at 10 μM)
same,"A9: inhibition of radioligand binding, human neuropeptide Y (NPY-Y1)",[2],− (“−” indicates less than 50% inhibition at 10 μM)
same,"A3: inhibition of radioligand binding, human melanocortin (MC3)",[3],− (“−” indicates less than 50% inhibition at 10 μM)
same,"A11: inhibition of radioligand binding, mouse urotensin (mUR2)",[4],− (“−” indicates less than 50% inhibition at 10 μM)
same,"A4: inhibition of radioligand binding, human melanocortin (MC4)",[5],+ (“+” indicates greater than 50% inhibition at 10 μM)
same,"A10: inhibition of radioligand binding, human opioid (ORL1)",[6],− (“−” indicates less than 50% inhibition at 10 μM)
same,"A7: inhibition of radioligand binding, human μ-opioid (MOP)",[7],− (“−” indicates less than 50% inhibition at 10 μM)
same,"A1: inhibition of radioligand binding, human δ-opioid (DOP)",[8],− (“−” indicates less than 50% inhibition at 10 μM)
same,"A5: inhibition of radioligand binding, human melanocortin (MC5)",[9],− (“−” indicates less than 50% inhibition at 10 μM)
same,"A6: inhibition of radioligand binding, human melanin-concentrating hormone (MCH1)",[10],− (“−” indicates less than 50% inhibition at 10 μM)
same,"A2: inhibition of radioligand binding, human κ-opioid (KOP)",[11],− (“−” indicates less than 50% inhibition at 10 μM)
